Laboratory results as given in patent US4360458A, “Antitumor antibacterial agents” (priority 1980, dated 1982).
≈ marks a conversion by molar mass, not a printed value.

Columns and labels:
[1] = system: A. faecalis ATCC 8750; test: MIC, serial agar dilution method; type: cell-based; details: nutrient agar pH 7, overnight 37° C.
Protocol: (§1) Antimicrobial activity of BBM-928 components was determined against a variety of bacteria and fungi by serial agar dilution method in nutrient agar at pH 7 using Steer's multi-inoculating apparatus. The inoculum size was standardized to apply a 0.0025-ml aliquot of test organisms containing approximately 10^4 cell/ml for all bacteria and fungi except acid-fast bacteria for which a 10^6 cell/ml suspension was used.

[2] = system: B. megaterium D2; test: MIC, serial agar dilution method; type: cell-based; details: nutrient agar pH 7, overnight 37° C.
Protocol: as §1

[3] = system: B. subtilis PCI 219; test: MIC, serial agar dilution method; type: cell-based; details: nutrient agar pH 7, overnight 37° C.
Protocol: as §1

[4] = system: C. arbicans IAM 4888; test: MIC, serial agar dilution method; type: cell-based; details: nutrient agar pH 7, overnight 37° C.
Protocol: as §1

[5] = system: C. neoformans; test: MIC, serial agar dilution method; type: cell-based; details: nutrient agar pH 7, overnight 37° C.
Protocol: as §1

[6] = system: C. xerosis 53K-1; test: MIC, serial agar dilution method; type: cell-based; details: nutrient agar pH 7, overnight 37° C.
Protocol: as §1

[7] = system: E. coli NIHJ; test: MIC, serial agar dilution method; type: cell-based; details: nutrient agar pH 7, overnight 37° C.
Protocol: as §1

[8] = system: K. pneumoniae D-11; test: MIC, serial agar dilution method; type: cell-based; details: nutrient agar pH 7, overnight 37° C.
Protocol: as §1

[9] = system: M. flavus D12; test: MIC, serial agar dilution method; type: cell-based; details: nutrient agar pH 7, overnight 37° C.
Protocol: as §1

[10] = system: M. phlei D88; test: MIC, serial agar dilution method; type: cell-based; details: nutrient agar pH 7, overnight 37° C., 10^6 cell/ml inoculum
Protocol: as §1

[11] = system: M. smegmatis 607 D87; test: MIC, serial agar dilution method; type: cell-based; details: nutrient agar pH 7, overnight 37° C., 10^6 cell/ml inoculum
Protocol: as §1

[12] = system: P. aeruginosa A9930; test: MIC, serial agar dilution method; type: cell-based; details: nutrient agar pH 7, overnight 37° C.
Protocol: as §1

[13] = system: P. mirabilis A9554; test: MIC, serial agar dilution method; type: cell-based; details: nutrient agar pH 7, overnight 37° C.
Protocol: as §1

[14] = system: P. morganii A9553; test: MIC, serial agar dilution method; type: cell-based; details: nutrient agar pH 7, overnight 37° C.
Protocol: as §1

[15] = system: P. vulgaris A9436; test: MIC, serial agar dilution method; type: cell-based; details: nutrient agar pH 7, overnight 37° C.
Protocol: as §1

[16] = system: S. aureus 209P; test: MIC, serial agar dilution method; type: cell-based; details: nutrient agar pH 7, overnight 37° C.
Protocol: as §1

[17] = system: S. lutea PCI 1001; test: MIC, serial agar dilution method; type: cell-based; details: nutrient agar pH 7, overnight 37° C.
Protocol: as §1

[18] = system: S. marcescens A20019; test: MIC, serial agar dilution method; type: cell-based; details: nutrient agar pH 7, overnight 37° C.
Protocol: as §1

[19] = system: S. pyogenes S-23; test: MIC, serial agar dilution method; type: cell-based; details: nutrient agar pH 7, overnight 37° C.
Protocol: as §1

[20] = system: B. anthracis A9504; type: cell-based; details: nutrient agar pH 7, overnight 37° C.
[21] = system: lysogenic bacterium; test: Prophage induction in lysogenic bacterium (ILB); type: cell-based; details: up to a concentration of 100 mcg./ml
Protocol: The activity of prophage induction in lysogenic bacterium (ILB) was determined for BBM-928 components.

[22] = system: B16 melamoma; test: Antitumor activity, intraperitoneally implanted tumor; type: in vivo, mouse
Protocol: (§2) Comparative testing of BBM-928 components A, B, C and D with mitomycin C for antitumor activity was carried out with the intraperitoneally implanted tumors: P388 leukemia, L1210 leukemia, B16 melamoma, Lewis Lung (LL) carcinoma, and sarcoma 180 ascites (S180). […] By varying dosage, the minimum effective dose (MED) was determined which provided a median survival time value for the treated animals at least 1.25 times greater than a control group. This level of activity is considered to be a measure of significant antitumor activity. […] Expt. Path.

[23] = system: L1210 leukemia; test: as above; type: in vivo, mouse
Protocol: as §2

[24] = system: Lewis Lung (LL) carcinoma; test: as above; type: in vivo, mouse
Protocol: as §2

[25] = system: P388 leukemia; test: as above; type: in vivo, mouse
Protocol: as §2

[26] = system: sarcoma 180 ascites (S180); test: as above; type: in vivo, mouse
Protocol: as §2

[27] = Intraperitoneal LD50, method of Van der Waerden
[28] = daily treatments from day 1 to day 9
[29] = single treatment on day 1, median survival time at least 1.25 times control

For COc1ccc2nc(C(=O)N[C@@H]3COC(=O)[C@H](C(C)(C)O)N(C)C(=O)CN(C)C(=O)CNC(=O)[C@@H]4[C@@H](OC(C)=O)CC=NN4C(=O)[C@H](NC(=O)c4nc5ccc(OC)cc5cc4O)COC(=O)[C@H](C(C)(C)O)N(C)C(=O)CN(C)C(=O)CNC(=O)[C@@H]4[C@@H](OC(C)=O)CC=NN4C3=O)c(O)cc2c1 [BBM-928A], the MIC [1] was > 100 µg/mL, the MIC [2] was 25 µg/mL (≈ 17.5 µM) and the MIC [3] was 25 µg/mL (≈ 17.5 µM). The MIC [4] was > 100 µg/mL, the MIC [5] was 100 µg/mL (≈ 70.1 µM) and the MIC [6] was 25 µg/mL (≈ 17.5 µM). The MIC [7] was > 100 µg/mL, the MIC [8] was > 100 µg/mL and the MIC [9] was 12.5 µg/mL (≈ 8.76 µM). For the same molecule, the MIC [10] was 12.5 µg/mL (≈ 8.76 µM), the MIC [11] was 25 µg/mL (≈ 17.5 µM) and the MIC [12] was > 100 µg/mL. For the same molecule, the MIC [13] was > 100 µg/mL, the MIC [14] was > 100 µg/mL and the MIC [15] was > 100 µg/mL. For the same molecule, the MIC [16] was 12.5 µg/mL (≈ 8.76 µM), the MIC [17] was 6.3 µg/mL (≈ 4.41 µM) and the MIC [18] was > 100 µg/mL. The MIC [19] was 6.3 µg/mL (≈ 4.41 µM), the MIC [20] was 6.3 µg/mL (≈ 4.41 µM) and the “ILB activity (prophage induction in lysogenic bacterium)” value (from here on “ILB activity”) [21] was “No significant ILB activity”. The “Activity Ratio (BBM-928A vs. Mitomycin C)” value (“Activity Ratio” for short) [22, 28] was 100, the “Minimum Effective Dose (MED)” value [22, 28] was 0.003 mg/kg/day and the “Activity Ratio” value ([22]; single treatment on day 1) was 300. The “Minimum Effective Dose (MED)” value [22, 29] was 0.003 mg/kg/day, the “Activity Ratio” value [23, 28] was 100 and the “Minimum Effective Dose (MED)” value [23, 28] was 0.003 mg/kg/day. For the same molecule, the “Minimum Effective Dose (MED)” value [23, 29] was > 0.1 mg/kg/day, the “Activity Ratio” value [24, 28] was 100 and the “Minimum Effective Dose (MED)” value [24, 28] was 0.003 mg/kg/day. The “Activity Ratio” value ([24]; single treatment on day 1) was 10, the “Minimum Effective Dose (MED)” value [24, 29] was 0.03 mg/kg/day and the “Activity Ratio” value [25, 28] was 100. The “Minimum Effective Dose (MED)” value [25, 28] was 0.001 mg/kg/day, the “Activity Ratio” value ([25]; single treatment on day 1) was 30 and the “Minimum Effective Dose (MED)” value [25, 29] was 0.003 mg/kg/day. The “Activity Ratio” value [26, 28] was 100, the “Minimum Effective Dose (MED)” value [26, 28] was 0.0001 mg/kg/day and the “Activity Ratio” value ([26]; single treatment on day 1) was 100. For the same molecule, the “Minimum Effective Dose (MED)” value [26, 29] was 0.003 mg/kg/day, the “LD50, i.p.” value [27, 28] was 0.013 mg/kg/day and the “LD50, i.p.” value ([27]; single treatment on day 1) was 0.13 mg/kg/day.

In the case of COc1ccc2nc(C(=O)N[C@@H]3COC(=O)[C@H](C(C)(C)O)N(C)C(=O)CN(C)C(=O)CNC(=O)[C@@H]4[C@@H](O)CC=NN4C(=O)[C@H](NC(=O)c4nc5ccc(OC)cc5cc4O)COC(=O)[C@H](C(C)(C)O)N(C)C(=O)CN(C)C(=O)CNC(=O)[C@@H]4[C@@H](OC(C)=O)CC=NN4C3=O)c(O)cc2c1 [BBM-928B], the MIC [1] is reported as > 100 µg/mL, the MIC [2] is reported as 25 µg/mL (≈ 18 µM) and the MIC [3] is reported as 25 µg/mL (≈ 18 µM). The MIC [4] was > 100 µg/mL, the MIC [5] was > 100 µg/mL and the MIC [6] was 50 µg/mL (≈ 36.1 µM). The MIC [7] was > 100 µg/mL, the MIC [8] was > 100 µg/mL and the MIC [9] was 25 µg/mL (≈ 18 µM). For the same molecule, the MIC [10] was 12.5 µg/mL (≈ 9.02 µM), the MIC [11] was 25 µg/mL (≈ 18 µM) and the MIC [12] was > 100 µg/mL. For the same molecule, the MIC [13] was > 100 µg/mL, the MIC [14] was > 100 µg/mL and the MIC [15] was > 100 µg/mL. The MIC [16] was 25 µg/mL (≈ 18 µM), the MIC [17] was 12.5 µg/mL (≈ 9.02 µM) and the MIC [18] was > 100 µg/mL. For the same molecule, the MIC [19] was 12.5 µg/mL (≈ 9.02 µM), the MIC [20] was 12.5 µg/mL (≈ 9.02 µM) and the “ILB activity” value [21] was “No significant ILB activity”. The “Minimum Effective Dose (MED)” value [25, 29] was 0.1 mg/kg/day and the “LD50, i.p.” value ([27]; single treatment on day 1) was 0.18 mg/kg/day.

With COc1ccc2nc(C(=O)N[C@@H]3COC(=O)[C@H](C(C)(C)O)N(C)C(=O)CN(C)C(=O)CNC(=O)[C@@H]4[C@@H](O)CC=NN4C(=O)[C@H](NC(=O)c4nc5ccc(OC)cc5cc4O)COC(=O)[C@H](C(C)(C)O)N(C)C(=O)CN(C)C(=O)CNC(=O)[C@@H]4[C@@H](O)CC=NN4C3=O)c(O)cc2c1 [BBM-928C] the MIC [1] was > 100 µg/mL, the MIC [2] was 50 µg/mL (≈ 37.2 µM) and the MIC [3] was 100 µg/mL (≈ 74.4 µM). The MIC [4] was > 100 µg/mL, the MIC [5] was 100 µg/mL (≈ 74.4 µM) and the MIC [6] was > 100 µg/mL. For the same molecule, the MIC [7] was > 100 µg/mL, the MIC [8] was > 100 µg/mL and the MIC [9] was 50 µg/mL (≈ 37.2 µM). The MIC [10] was 12.5 µg/mL (≈ 9.31 µM), the MIC [11] was 25 µg/mL (≈ 18.6 µM) and the MIC [12] was > 100 µg/mL. For the same molecule, the MIC [13] was > 100 µg/mL, the MIC [14] was > 100 µg/mL and the MIC [15] was > 100 µg/mL. The MIC [16] was 50 µg/mL (≈ 37.2 µM), the MIC [17] was 50 µg/mL (≈ 37.2 µM) and the MIC [18] was > 100 µg/mL. The MIC [19] was 25 µg/mL (≈ 18.6 µM), the MIC [20] was 25 µg/mL (≈ 18.6 µM) and the “ILB activity” value [21] was “No significant ILB activity”. The “LD50, i.p.” value ([27]; single treatment on day 1) was 0.81 mg/kg/day.

With CO[C@@]12[C@H](COC(N)=O)C3=C(C(=O)C(C)=C(N)C3=O)N1C[C@@H]1N[C@@H]12 [Mitomycin C, reference compound] the “Minimum Effective Dose (MED)” value [22, 28] was 0.3 mg/kg/day, the “Minimum Effective Dose (MED)” value [22, 29] was 1 mg/kg/day and the “Minimum Effective Dose (MED)” value [23, 28] was 0.3 mg/kg/day. For the same molecule, the “Minimum Effective Dose (MED)” value [23, 29] was 3 mg/kg/day, the “Minimum Effective Dose (MED)” value [24, 28] was 0.3 mg/kg/day and the “Minimum Effective Dose (MED)” value [24, 29] was 0.3 mg/kg/day. The “Minimum Effective Dose (MED)” value [25, 28] was 0.1 mg/kg/day, the “Minimum Effective Dose (MED)” value [25, 29] was 0.1 mg/kg/day and the “Minimum Effective Dose (MED)” value [26, 28] was 0.03 mg/kg/day. For the same molecule, the “Minimum Effective Dose (MED)” value [26, 29] was 0.3 mg/kg/day.
